Values quoted from earlier work as cited in article PMC4291083, “Ex Vivo Characterization of a Novel Iodine-123-Labelled Aminomethylchroman as a Potential Agonist Ligand for SPECT Imaging of Dopamine D2/3 Receptors” (International Journal of Molecular Imaging, 2014).

Columns and labels:
Design in all cases: method as in PMID 24325578
D2 low = conditions: in vitro; cited from earlier work
D1 receptor = conditions: in vitro; cited from earlier work
D2 receptor = conditions: agonism D2 receptor, cited from earlier work
D2 high = conditions: in vitro; cited from earlier work
dopamine D4 receptor = conditions: in vitro; cited from earlier work

For “(R) N-[7-hydroxychroman-2-yl]-methyl 4-iodobenzyl amine [compound 1]”, the Ki (D2 low) is given as 51.8 nM, the Ki (D1 receptor) is given as 8670 nM and the Emax (D2 receptor; cAMP) is given as 86 % of dopamine. For the same substance, the “pEC50 cAMP” value (D2 receptor) was 9.2 ± 0.4, the Ki (D2 high) was 3.79 nM and the “binding affinity to dopamine D4 receptor” value (dopamine D4 receptor) was “binds with high-affinity”.
